Reference: patent publication US20210261512A1, “NOVEL COMPOUNDS” (INFLAZOME LIMITED, priority 2018, published 2021)
pIC50: −log10 of the molar value.

biological target: NLRP3 (Homo sapiens, UniProt Q96P20); experiment: THP-1 cells pyroptosis assay; assay type: cell-based; set-up: Seed THP-1 cells (25,000 cells/well) containing 1.0 μg/ml LPS; host or cells: THP-1; conditions: LPS 1.0 μg/ml, nigericin 5 μM, resazurin readout, 10 μM top dose (Example 2: top dose of 30 μM)
Method: THP-1 cells (ATCC #TIB-202) were grown in RPMI containing L-glutamine (Gibco #11835) supplemented with imM sodium pyruvate (Sigma #S8636) and penicillin (100 units/ml)/streptomycin (0.1 mg/ml) (Sigma #P4333) in 10% Fetal Bovine Serum (FBS) (Sigma #F0804). The cells were routinely passaged and grown to confluency (˜10^6 cells/ml). On the day of the experiment, THP-1 cells were harvested and resuspended into RPMI medium (without FBS). The cells were then counted and viability (>90%) checked by Trypan blue (Sigma #T8154). Appropriate dilutions were made to give a concentration of 625,000 cells/ml. To this diluted cell solution was added LPS (Sigma #L4524) to give a 1 μg/ml Final Assay Concentration (FAC). 40 μl of the final preparation was aliquoted into each well of a 96-well plate. The plate thus prepared was used for compound screening.
The following method step-by-step assay was followed for compound screening. • 1. Seed THP-1 cells (25,000 cells/well) containing 1.0 μg/ml LPS in 40 μl of RPMI medium (without FBS) in 96-well, black walled, clear bottom cell culture plates coated with poly-D-lysine (VWR #734-0317) • 2. Add 5 μl compound (8 points four-fold dilution or 8 points half-log dilution, with 10 μM top dose, unless stated otherwise) or vehicle (DMSO 0.1% FAC) to the appropriate wells • 3. Incubate for 3 hrs at 37° C. and 5% CO2 • 4. Add 5 μl nigericin (Sigma #N7143) (FAC 5 μM) to all wells • 5. Incubate for 1 hr at 37° C. and 5% CO2 • 6. At the end of the incubation period, spin plates at 300×g for 3 mins and remove supernatant • 7. Then add 50 μl of resazurin (Sigma #R^7017) (FAC 100 μM resazurin in RPMI medium without FBS) and incubate plates for a further 1-2 hrs at 37° C. and 5% CO2 • 8. Plates were read in an Envision reader at Ex 560 nm and Em 590 nm • 9. IC50 data is fitted to a non-linear regression equation (log inhibitor vs response-variable slope 4-parameters)

Chain of NLRP3 (Q96P20 whole entry): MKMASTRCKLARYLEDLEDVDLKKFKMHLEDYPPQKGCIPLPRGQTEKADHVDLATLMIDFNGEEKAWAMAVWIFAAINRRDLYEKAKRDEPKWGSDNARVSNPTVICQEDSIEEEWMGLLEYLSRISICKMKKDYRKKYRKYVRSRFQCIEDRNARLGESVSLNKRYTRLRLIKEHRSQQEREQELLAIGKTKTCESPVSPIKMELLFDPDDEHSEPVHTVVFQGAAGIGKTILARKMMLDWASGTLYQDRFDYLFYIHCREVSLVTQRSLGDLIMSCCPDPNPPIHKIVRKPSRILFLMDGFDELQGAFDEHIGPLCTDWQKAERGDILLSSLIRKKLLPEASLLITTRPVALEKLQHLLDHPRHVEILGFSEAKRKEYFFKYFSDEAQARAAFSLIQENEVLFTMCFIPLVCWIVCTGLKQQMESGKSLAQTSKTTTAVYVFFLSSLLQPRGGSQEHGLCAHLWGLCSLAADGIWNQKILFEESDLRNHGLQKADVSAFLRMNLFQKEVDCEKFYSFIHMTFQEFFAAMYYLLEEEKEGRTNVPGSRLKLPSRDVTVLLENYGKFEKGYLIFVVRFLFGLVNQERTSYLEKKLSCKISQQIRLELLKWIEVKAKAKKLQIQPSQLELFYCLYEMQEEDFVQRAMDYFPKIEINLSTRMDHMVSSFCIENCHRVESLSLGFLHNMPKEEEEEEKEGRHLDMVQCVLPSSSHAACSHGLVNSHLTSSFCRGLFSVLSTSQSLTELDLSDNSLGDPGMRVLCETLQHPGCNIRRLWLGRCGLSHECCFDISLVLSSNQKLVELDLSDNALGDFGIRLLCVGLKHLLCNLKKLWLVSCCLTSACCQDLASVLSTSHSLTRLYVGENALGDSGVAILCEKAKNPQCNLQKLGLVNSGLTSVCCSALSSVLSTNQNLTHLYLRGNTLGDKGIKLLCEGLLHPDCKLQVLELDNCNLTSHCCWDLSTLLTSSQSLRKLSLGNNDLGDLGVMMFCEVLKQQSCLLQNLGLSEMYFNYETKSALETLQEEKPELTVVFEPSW

| SMILES | pIC50 |
| --- | --- |
| CC(c1cc(S(=O)(=O)c2nnc(Nc3c4c(cc5c3CCC5)CCC4)[nH]2)nn1C(C)C)N(C)C (centres unmarked) [Example 8, 5-((5-(1-(dimethylamino)ethyl)-1-isopropyl-1H-pyrazol-3-yl)sulfonyl)-N-(1,2,3,5,6,7-hexahydro-s-indacen-4-yl)-4H-1,2,4-triazol-3-amine] | ≥ 6.00 |
| COC1(c2cc(S(=O)(=O)c3nnc(Nc4c5c(cc6c4CCC6)CCC5)[nH]3)nn2C(C)C)COC1 [Example 14, N-(1,2,3,5,6,7-hexahydro-s-indacen-4-yl)-5-((1-isopropyl-5-(3-methoxyoxetan-3-yl)-1H-pyrazol-3-yl)sulfonyl)-4H-1,2,4-triazol-3-amine] | ≥ 5.30 |
| COC1(c2cc(S(=O)(=O)c3nnc(Nc4c5c(cc6c4CCC6)CCC5)[nH]3)nn2C2CC2)COC1 [Example 16, 5-((1-cyclopropyl-5-(3-methoxyoxetan-3-yl)-1H-pyrazol-3-yl)sulfonyl)-N-(1,2,3,5,6,7-hexahydro-s-indacen-4-yl)-4H-1,2,4-triazol-3-amine] | ≥ 5.30 |
| O=S(=O)(c1nnc(Nc2c3c(cc4c2CCC4)CCC3)[nH]1)C1CNC1 [Example 21, 5-(azetidin-3-ylsulfonyl)-N-(1,2,3,5,6,7-hexahydro-s-indacen-4-yl)-4H-1,2,4-triazol-3-amine] | ≥ 5.00 |
| COC1(c2cc([S+]([O-])c3nnc(Nc4c5c(cc6c4CCC6)CCC5)[nH]3)nn2C(C)C)COC1 (centres unmarked) [Example 25, N-(1,2,3,5,6,7-hexahydro-s-indacen-4-yl)-5-((1-isopropyl-5-(3-methoxyoxetan-3-yl)-1H-pyrazol-3-yl)sulfinyl)-4H-1,2,4-triazol-3-amine] | ≥ 5.00 |
| COC1(c2cc([S+]([O-])c3nnc(Nc4c5c(cc6c4CCC6)CCC5)[nH]3)nn2C)COC1 (centres unmarked) [Example 26, N-(1,2,3,5,6,7-hexahydro-s-indacen-4-yl)-5-((5-(3-methoxyoxetan-3-yl)-1-methyl-1H-pyrazol-3-yl)sulfinyl)-4H-1,2,4-triazol-3-amine] | ≥ 5.00 |
| CC(C)c1cc(F)cc(C(C)C)c1Cc1nnc(S(=O)(=O)Cc2ccc(F)cc2)[nH]1 [Example 28, 3-(4-fluoro-2,6-diisopropylbenzyl)-5-((4-fluorobenzyl)sulfonyl)-4H-1,2,4-triazole] | ≥ 5.00 |
| CC(C)n1ccc(S(=O)(=O)c2nnc(Cc3c4c(cc5c3CCC5)CCC4)[nH]2)n1 [Example 30, 3-((1,2,3,5,6,7-hexahydro-s-indacen-4-yl)methyl)-5-((1-isopropyl-1H-pyrazol-3-yl)sulfonyl)-4H-1,2,4-triazole] | ≥ 5.00 |
| COc1cc(-c2ccc3c(c2Cc2nnc(S(=O)(=O)c4ccn(C(C)C)n4)[nH]2)CCC3)ccn1 [Example 32, 4-(4-((5-((1-isopropyl-H-pyrazol-3-yl)sulfonyl)-4H-1,2,4-triazol-3-yl)methyl)-2,3-dihydro-1H-inden-5-yl)-2-methoxypyridine] | ≥ 5.30 |
| CC(C)c1cc(F)cc(-c2cccnc2)c1Nc1nnc(S(=O)(=O)c2ccn(C(C)C)n2)[nH]1 [Example 39, N-(4-fluoro-2-isopropyl-6-(pyridin-3-yl)phenyl)-5-((1-isopropyl-1H-pyrazol-3-yl)sulfonyl)-4H-1,2,4-triazol-3-amine] | ≥ 5.00 |
| O=S(=O)(c1ccccc1)c1nc(Nc2c(-c3cccnc3)cc(F)c3c2CCC3)n[nH]1 [Example 41, N-(7-fluoro-5-(pyridin-3-yl)-2,3-dihydro-1H-inden-4-yl)-5-(phenylsulfonyl)-1H-1,2,4-triazol-3-amine] | ≥ 5.00 |
| CC(C)c1cc(F)cc(C(C)C)c1Nc1nnc(S(=O)(=O)c2ccccc2)[nH]1 [Example 42, N-(4-fluoro-2,6-diisopropylphenyl)-3-(phenylsulfonyl)-1H-1,2,4-triazol-5-amine] | ≥ 5.00 |
| O=S(=O)(CCCO)c1nnc(Nc2c3c(cc4c2CCC4)CCC3)[nH]1 [Example 47, 3-((5-((1,2,3,5,6,7-hexahydro-s-indacen-4-yl)amino)-4H-1,2,4-triazol-3-yl)sulfonyl)propan-1-ol] | ≥ 5.30 |
| O=S(=O)(CCCN1CCOCC1)c1nnc(Nc2c3c(cc4c2CCC4)CCC3)[nH]1 [Example 50, N-(1,2,3,5,6,7-hexahydro-s-indacen-4-yl)-5-((3-morpholinopropyl)sulfonyl)-4H-1,2,4-triazol-3-amine] | ≥ 5.30 |
| CN1CCN(CCCS(=O)(=O)c2nnc(Nc3c4c(cc5c3CCC5)CCC4)[nH]2)CC1 [Example 51, N-(1,2,3,5,6,7-hexahydro-s-indacen-4-yl)-5-((3-(4-methylpiperazin-1-yl)propyl)sulfonyl)-4H-1,2,4-triazol-3-amine] | ≥ 5.30 |
| CN(C)CCN(C)CCCS(=O)(=O)c1nnc(Nc2c3c(cc4c2CCC4)CCC3)[nH]1 [Example 52, N^1-(3-((5-((1,2,3,5,6,7-hexahydro-s-indacen-4-yl)amino)-4H-1,2,4-triazol-3-yl)sulfonyl)propyl)-N^1,N^2,N^2-trimethylethane-1,2-diamine] | ≥ 5.30 |
| CN1CCC(CN(C)CCCS(=O)(=O)c2nnc(Nc3c4c(cc5c3CCC5)CCC4)[nH]2)CC1 [Example 53, N-(1,2,3,5,6,7-hexahydro-s-indacen-4-yl)-5-((3-(methyl((1-methylpiperidin-4-yl)methyl)amino)propyl)sulfonyl)-4H-1,2,4-triazol-3-amine] | ≥ 5.30 |
| CCNCCCS(=O)(=O)c1nnc(Nc2c3c(cc4c2CCC4)CCC3)[nH]1 [Example 55, 5-((3-(ethylamino)propyl)sulfonyl)-N-(1,2,3,5,6,7-hexahydro-s-indacen-4-yl)-4H-1,2,4-triazol-3-amine] | ≥ 5.30 |
| O=S(=O)(CCCNC1CC1)c1nnc(Nc2c3c(cc4c2CCC4)CCC3)[nH]1 [Example 56, 5-((3-(cyclopropylamino)propyl)sulfonyl)-N-(1,2,3,5,6,7-hexahydro-s-indacen-4-yl)-4H-1,2,4-triazol-3-amine] | ≥ 5.30 |
| O=S(=O)(CC1CNCCO1)c1nnc(Nc2c3c(cc4c2CCC4)CCC3)[nH]1 (centres unmarked) [Example 57, N-(1,2,3,5,6,7-hexahydro-s-indacen-4-yl)-3-((morpholin-2-ylmethyl)sulfonyl)-1H-1,2,4-triazol-5-amine] | ≥ 5.00 |
| CN1CCCC(CS(=O)(=O)c2nnc(Nc3c4c(cc5c3CCC5)CCC4)[nH]2)C1 (centres unmarked) [Example 58, N-(1,2,3,5,6,7-hexahydro-s-indacen-4-yl)-3-(((1-methylpiperidin-3-yl)methyl)sulfonyl)-1H-1,2,4-triazol-5-amine] | ≥ 5.30 |
| CN1CCCC1CS(=O)(=O)c1nnc(Nc2c3c(cc4c2CCC4)CCC3)[nH]1 (centres unmarked) [Example 61, N-(1,2,3,5,6,7-hexahydro-s-indacen-4-yl)-3-(((1-methylpyrrolidin-2-yl)methyl)sulfonyl)-1H-1,2,4-triazol-5-amine] | ≥ 5.00 |
| O=S(=O)(CC1CCCN1)c1nnc(Nc2c3c(cc4c2CCC4)CCC3)[nH]1 (centres unmarked) [Example 62, N-(1,2,3,5,6,7-hexahydro-s-indacen-4-yl)-3-((pyrrolidin-2-ylmethyl)sulfonyl)-1H-1,2,4-triazol-5-amine] | ≥ 5.00 |
| O=S(=O)(CCc1ccccn1)c1nnc(Nc2c3c(cc4c2CCC4)CCC3)[nH]1 [Example 63, N-(1,2,3,5,6,7-hexahydro-s-indacen-4-yl)-3-((2-(pyridin-2-yl)ethyl)sulfonyl)-1H-1,2,4-triazol-5-amine] | ≥ 6.00 |
| O=S(=O)(c1nnc(Nc2c3c(cc4c2CCC4)CCC3)[nH]1)C1CCCC1 [Example 64, 3-(Cyclopentylsulfonyl)-N-(1,2,3,5,6,7-hexahydro-s-indacen-4-yl)-1H-1,2,4-triazol-5-amine] | ≥ 5.30 |
| COCCCS(=O)(=O)c1nnc(Nc2c3c(cc4c2CCC4)CCC3)[nH]1 [Example 65, N-(1,2,3,5,6,7-hexahydro-s-indacen-4-yl)-3-((3-methoxypropyl)sulfonyl)-1H-1,2,4-triazol-5-amine] | ≥ 5.00 |
| O=S(=O)(CC1CCOC1)c1nnc(Nc2c3c(cc4c2CCC4)CCC3)[nH]1 (centres unmarked) [Example 66, N-(1,2,3,5,6,7-hexahydro-s-indacen-4-yl)-3-(((tetrahydrofuran-3-yl)methyl)sulfonyl)-1H-1,2,4-triazol-5-amine] | ≥ 5.00 |
| O=S(=O)(CC1CCCO1)c1nnc(Nc2c3c(cc4c2CCC4)CCC3)[nH]1 (centres unmarked) [Example 67, N-(1,2,3,5,6,7-hexahydro-s-indacen-4-yl)-3-(((tetrahydrofuran-2-yl)methyl)sulfonyl)-1H-1,2,4-triazol-5-amine] | ≥ 5.00 |
| CNC(=O)CS(=O)(=O)c1nnc(Nc2c3c(cc4c2CCC4)CCC3)[nH]1 [Example 68, 2-((5-((1,2,3,5,6,7-hexahydro-s-indacen-4-yl)amino)-4H-1,2,4-triazol-3-yl)sulfonyl)-N-methylacetamide] | ≥ 5.30 |
